{
  "source": "patent US6380179B1",
  "about": "“Method for treatment of alopecia” (Sankyo Company, Limited, priority 1997, dated 2002)",
  "key": {"[1]": {"tested_on": "dihydrotestosterone (DHT) and testosterone (T) levels in blood", "experiment": "Effects for lowering the dihydrotestosterone level in human blood after oral administration", "assay_type": "in vivo", "conditions": "n=4 to 6", "method": "Effects for Lowering the Dihydrosterone Level in Human Blood\nTo a human body, 1 to 10 mg/body of Compound I or 5 mg/body of Finasteride was orally administered and the dihydrotestosterone (DHT) and testosterone (T) levels in blood were measured. Their ratios (DHT/T) before administration (pre) and after passage of time (10 and 18 hours) were calculated, from which (DHT/T)/(DHT/T)pre was calculated."}, "[2]": {"biological_target": "T1, recombinant type I human 5α-reductase (Homo sapiens, UniProt P18405)", "T1 construct": "In order to clone the entirely translated regions of type I and type II human 5α-reductases by a polymerase chain reaction (PCR) method; made in house; host or cells: COS-1 cells transiently transfected with pME18sH5R1; resuspended 10000×g pellet of the homogenate used as the enzyme", "T1 sequence (P18405 1-259)": "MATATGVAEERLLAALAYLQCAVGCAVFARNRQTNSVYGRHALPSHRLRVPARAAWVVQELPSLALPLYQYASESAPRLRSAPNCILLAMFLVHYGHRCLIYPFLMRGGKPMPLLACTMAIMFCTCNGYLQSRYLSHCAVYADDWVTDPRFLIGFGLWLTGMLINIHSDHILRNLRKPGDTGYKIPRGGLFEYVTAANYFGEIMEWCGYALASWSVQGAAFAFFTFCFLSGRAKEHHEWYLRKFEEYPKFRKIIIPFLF", "experiment": "Inhibitory activity against recombinant type I human 5α-reductase (conversion of 14C testosterone to 14C 5α-dihydrotestosterone)", "assay_type": "biochemical", "conditions": "recombinant human type I 5α-reductase, pH 7.5, 1 μM 14C testosterone, 37° C. 15 minutes; Table 1", "method": "Method for Determination of the Inhibitory Activity Against Each of Type I and Type II Human 5α-reductases\n(1) Preparation of recombinant human type I and type II 5α-reductases\nIn order to clone the entirely translated regions of type I and type II human 5α-reductases by a polymerase chain reaction (PCR) method, primers of Sequence ID. Nos. 1,2,3 and 4 were prepared using an Oligo 1000 DNA synthesizer (product of BECKMAN Co., Ltd.) on the basis of the base sequences of type I and type II human 5α-reductases described in published reports (Stefan. A, et al., Proc. Natl. Acad. Sci. USA, 87, 3640-3644(1990). Stefan. A, et al. Nature, 354. 159-161(1991)).\nPCR was carried out using 1 μl of cDNA. 5 μl of a PCR buffer attached. 1 μl of a 10 mM dNTP mixed solution. 1 μl each of the above-described sense and antisense-primers at a concentration of 20 μl M. 1 μl of […] of TaKaRa Taq polymerase and 40 μl of distilled water to give a reaction volume of 50 μl. For PCR, a cycle of the reactions at 94° C. for 20 seconds, at 55° C. for 1 minute and at 72° C. for 1 minute was repeated 25 times, followed by storing at 4° C. […]\nThe protein content was measured by the Bradford method (Bio-Rad Protein Assay of Biorad) by using bovine gamma-globulin (bovine cohn fraction II, product of Sigma) as a standard product. […]"}, "[3]": {"tested_on": "monkey model animal of male pattern baldness", "conditions": "cited from earlier work"}, "[4]": {"tested_on": "human baldness", "conditions": "clinical test; cited from earlier work"}},
  "data": [
    {"smiles": "COc1ccc(C(C)(C)NC(=O)[C@H]2CC[C@H]3[C@@H]4CC[C@H]5NC(=O)C=C[C@]5(C)[C@H]4CC[C@]23C)cc1", "note": "[Compound of Reference Example 1, N-[1-Methyl1-(4-methoxyphenyl)ethyl]-3-oxo4-aza-5α-androsto-1-ene-17β-carboxamide]", "values": [
      {"measurement": "(DHT/T)/(DHT/T)pre", "setting": "[1]; 1 mg/body, after 10 hours", "value": 0.518},
      {"measurement": "(DHT/T)/(DHT/T)pre", "setting": "[1]; 1 mg/body, after 18 hours", "value": 0.525},
      {"measurement": "(DHT/T)/(DHT/T)pre", "setting": "[1]; 5 mg/body, after 10 hours", "value": 0.411},
      {"measurement": "(DHT/T)/(DHT/T)pre", "setting": "[1]; 5 mg/body, after 18 hours", "value": 0.376},
      {"measurement": "(DHT/T)/(DHT/T)pre", "setting": "[1]; 10 mg/body, after 10 hours", "value": 0.279},
      {"measurement": "(DHT/T)/(DHT/T)pre", "setting": "[1]; 10 mg/body, after 18 hours", "value": 0.284},
      {"measurement": "IC50", "setting": "[2]", "value": 49, "unit": "nM"}
    ]},
    {"smiles": "CC(C)(C)NC(=O)[C@H]1CC[C@H]2[C@@H]3CC[C@H]4NC(=O)C=C[C@]4(C)[C@H]3CC[C@]12C", "note": "[Finasteride, reference compound]", "values": [
      {"measurement": "(DHT/T)/(DHT/T)pre", "setting": "[1]; 5 mg/body, after 10 hours", "value": 0.553},
      {"measurement": "(DHT/T)/(DHT/T)pre", "setting": "[1]; 5 mg/body, after 18 hours", "value": 0.461},
      {"measurement": "effectiveness on baldness", "setting": "[3]", "value": "effective in the treatment of baldness"},
      {"measurement": "effects on human baldness", "setting": "[4]", "value": "have been recognized"},
      {"measurement": "IC50", "setting": "[2]", "value": 700, "unit": "nM"}
    ]},
    {"smiles": "CC(C)CCCC(C)C1CCC2C3C(C)CC4N(C)C(=O)CCC4(C)C3CCC12C", "note": "(stereo not shown) [MK386]", "values": [
      {"measurement": "effectiveness on baldness", "setting": "[3]", "value": "not recognized"}
    ]}
  ]
}
